Experimental findings from ChEMBL document CHEMBL5537202, “Perspectives on Nuclear Magnetic Resonance Spectroscopy in Drug Discovery Research” (J Med Chem, 2024) are described below.

Where a SMILES comes first, the peptide text is derived from it. Bridges are numbered along the chain shown (N, C = ends). [ ]: non-standard residue; d: D form. Trp(1-CH2COOH) = N[C@@H](Cc1cn(CC(=O)O)c2ccccc12)C(=O)O; Hyp = O=C(O)[C@@H]1C[C@@H](O)CN1; NMeNle = CCCC[C@H](NC)C(=O)O; NMeA = CN[C@@H](C)C(=O)O; Dab = NCC[C@H](N)C(=O)O; Dap = NC[C@H](N)C(=O)O; Sar = CNCC(=O)O

The nature of data set [1]: Binding affinity to Hsp90 (unknown origin) expressed in Escherichia coli BL21 (DE3) cells assessed as inhibition constant by NMR STD analysis. Details: species or system Homo sapiens.
Data set [2] in a line: Binding affinity to human Hsp90 expressed in Escherichia coli BL21 (DE3) cells assessed as inhibition constant.
Data set [3] addresses T1, Programmed cell death protein 1/Programmed cell death 1 ligand 1 (Homo sapiens, UniProt Q15116+Q9NZQ7). Put plainly: Inhibition of PD-1/PD-L1 (unknown origin) protein-protein interaction expressed in HEK293 cells by HTRF method. Format: cell-based.
Data set [4] is described as follows: Binding affinity to human recombinant Hsp90 expressed in Escherichia coli BL21 (DE3) cells assessed as dissociation constant.
The nature of data set [5]: Oral bioavailability in Beagle dog at 2 mg/kg. The following applies: in vivo. It is filed as ADME, organism-based, Canis lupus familiaris.
The nature of data set [6]: Oral bioavailability in mouse at 2 mg/kg. The conditions noted are these: in vivo. Format: ADME, organism-based.
Data set [7] can be described thus: Oral bioavailability in monkey at 5 mg/kg. It is filed as ADME, organism-based, Macaca mulatta. The conditions noted are these: rhesus monkey, in vivo.
Data set [8] is described as follows: Oral bioavailability in rat at 2 mg/kg by LC-MS/MS analysis. Format: ADME, organism-based. The conditions noted are these: in vivo.
Data set [9] can be described thus: Binding affinity to Hsp90 (unknown origin) assessed as dissociation constant. Details: species or system Homo sapiens.
Data set [10] deals with T1, Programmed cell death protein 1/Programmed cell death 1 ligand 1. The data set can be described thus: Inhibition of PD-1/PD-L1 (unknown origin) protein-protein interaction incubated for 1 hr by HTRF assay. It is filed as protein-complex assay.
Data set [11] shares this target. Put plainly: Inhibition of PD-1/PD-L1 (unknown origin) interaction expressed in human HEK293T cells by HTRF analysis. It is filed as cell-based.
In data set [12] the target is Stimulator of interferon genes protein (Homo sapiens, UniProt Q86WV6). Put plainly: Binding affinity to N-terminal His-tagged wild type human STING CTD ([…]) expressed in Escherichia coli BL21 (DE3) cells assessed as dissociation constant by NMR analysis.
Sequence of Stimulator of interferon genes protein (Q86WV6 whole entry): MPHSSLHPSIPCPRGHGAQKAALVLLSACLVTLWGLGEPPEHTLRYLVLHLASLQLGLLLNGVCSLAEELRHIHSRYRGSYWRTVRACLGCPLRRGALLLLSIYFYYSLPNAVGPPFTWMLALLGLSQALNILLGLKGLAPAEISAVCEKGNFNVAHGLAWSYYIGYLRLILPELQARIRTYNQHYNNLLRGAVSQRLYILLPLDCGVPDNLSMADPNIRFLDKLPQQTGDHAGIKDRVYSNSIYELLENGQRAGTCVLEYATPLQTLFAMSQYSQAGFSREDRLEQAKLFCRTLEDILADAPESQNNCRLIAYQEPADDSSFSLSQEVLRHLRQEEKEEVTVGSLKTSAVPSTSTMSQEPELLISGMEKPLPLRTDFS

T1 sequence (Q15116 whole entry): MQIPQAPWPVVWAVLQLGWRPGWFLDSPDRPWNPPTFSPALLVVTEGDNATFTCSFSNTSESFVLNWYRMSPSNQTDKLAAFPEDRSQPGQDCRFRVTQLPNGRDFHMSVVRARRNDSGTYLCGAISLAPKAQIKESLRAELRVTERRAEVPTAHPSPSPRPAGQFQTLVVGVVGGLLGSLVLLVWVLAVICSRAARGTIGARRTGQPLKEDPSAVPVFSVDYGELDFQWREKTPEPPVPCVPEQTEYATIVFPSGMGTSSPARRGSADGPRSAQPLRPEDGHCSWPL
T1 sequence (Q9NZQ7 whole entry): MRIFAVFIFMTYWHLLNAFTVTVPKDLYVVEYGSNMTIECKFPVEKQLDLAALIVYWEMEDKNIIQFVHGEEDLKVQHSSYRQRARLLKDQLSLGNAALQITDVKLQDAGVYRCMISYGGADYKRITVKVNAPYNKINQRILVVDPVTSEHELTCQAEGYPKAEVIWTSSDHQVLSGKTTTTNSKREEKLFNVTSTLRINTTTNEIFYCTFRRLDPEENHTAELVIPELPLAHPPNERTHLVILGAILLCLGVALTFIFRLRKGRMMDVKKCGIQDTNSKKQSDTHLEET

Consider `O=C(O)c1ccc(-c2ccc(F)cc2)cc1/C=C/c1cccc(-c2ccccc2)c1`, for which, in data set [1], the Ki was 1.4 µM.

With `CN(C)CC[C@H](CSc1ccccc1)Nc1ccc(S(=O)(=O)NC(=O)c2ccc(N3CCN(Cc4ccccc4-c4ccc(Cl)cc4)CC3)cc2)cc1[N+](=O)[O-]` [ABT 737], the Ki in data set [2] was below 0.001 µM.

`CCCC[C@H]1C(=O)N(C)[C@@H](CCCC)C(=O)N[C@@H](CC(C)C)C(=O)N[C@H](C(=O)NCC(N)=O)CSCC(=O)N[C@@H](Cc2ccc(O)cc2)C(=O)N(C)[C@@H](C)C(=O)N[C@@H](CC(N)=O)C(=O)N2CCC[C@H]2C(=O)N[C@@H](CN)C(=O)N[C@@H](CC(C)C)C(=O)N2C[C@H](O)C[C@H]2C(=O)N[C@@H](Cc2c[nH]c3ccccc23)C(=O)N[C@@H](CCN)C(=O)N[C@@H](Cc2cn(CC(=O)O)c3ccccc23)C(=O)N1C` ({CH2CO}-Y[NMeA]NP[Dap]L[Hyp]W[Dab][Trp(1-CH2COOH)][NMeNle][NMeNle]LCG-NH2; thioether N-14) registered an IC50 in data set [3] of 0.00027 µM.

`Oc1ccc(-c2ccccc2)cc1`: in data set [4], the Kd was 6000 µM.

Consider `COc1cccc(Nc2ncnn3ccc(CN4CC[C@@H](N)[C@@H](O)C4)c23)c1`, for which the bioavailability in data set [5] is 29.7%; in data set [6], 29.7%; in data set [7] it was 8%; in data set [8], 29.7%.

With `Cc1cccc(C2c3[nH]c4ccccc4c3CC3C(=O)N(c4ccccc4C(=O)O)C(=O)N32)c1` (stereo not given), in data set [9], the Kd turned out to be 177 µM.

For the compound `O=C(NS(=O)(=O)c1ccc(NCCSc2ccccc2)c([N+](=O)[O-])c1)c1ccc(-c2ccc(F)cc2)cc1`, the Ki in data set [1] was found to be 0.036 µM.

`CCCC[C@H]1C(=O)N(C)[C@@H](CCCC)C(=O)N[C@@H](CCCNC(=N)N)C(=O)N[C@H](C(=O)NCC(N)=O)CSCC(=O)N[C@@H](Cc2ccccc2)C(=O)N(C)[C@@H](C)C(=O)N[C@@H](CC(N)=O)C(=O)N2CCC[C@H]2C(=O)N[C@@H](Cc2c[nH]cn2)C(=O)N[C@@H](CC(C)C)C(=O)N(C)CC(=O)N[C@@H](Cc2c[nH]c3ccccc23)C(=O)N[C@@H](CO)C(=O)N[C@@H](Cc2c[nH]c3ccccc23)C(=O)N1C` ({CH2CO}-F[NMeA]NPHL[Sar]WSW[NMeNle][NMeNle]RCG-NH2; thioether N-14): the IC50 in data set [10] was 0.009 µM; in [11], 0.06 µM.

Consider `COc1cc2cc(C(=O)CCC(=O)O)sc2cc1OC`, for which, in data set [12], the Kd was 18 µM.

As to `Oc1cccc2c1CCCC2`, the Kd in data set [4] was determined as 4300 µM.

As to `O=C(O)c1ccc(-c2ccc(F)cc2)cc1`, the Kd in data set [4] came out at 300 µM.
